The results in this text go back to EP4227307A1 (Genzyme Corporation, priority 2022, dated 2023).

pIC50: −log10 of the molar value. Structures can show the parent of a compound that is named as a salt.

In general, pIC50 refers to −log10 of the IC50, conventionally taken in molar units.

This test has as its target T1, human recombinant 6His-Nterm SHP2 full-length (Thr2-Arg593) (Homo sapiens, UniProt Q06124).
T1 construct: 6His-Nterm SHP2 full-length (Thr2-Arg593, R&D system); 6His (N); purchased R&D system
T1 sequence (Q06124 2-593): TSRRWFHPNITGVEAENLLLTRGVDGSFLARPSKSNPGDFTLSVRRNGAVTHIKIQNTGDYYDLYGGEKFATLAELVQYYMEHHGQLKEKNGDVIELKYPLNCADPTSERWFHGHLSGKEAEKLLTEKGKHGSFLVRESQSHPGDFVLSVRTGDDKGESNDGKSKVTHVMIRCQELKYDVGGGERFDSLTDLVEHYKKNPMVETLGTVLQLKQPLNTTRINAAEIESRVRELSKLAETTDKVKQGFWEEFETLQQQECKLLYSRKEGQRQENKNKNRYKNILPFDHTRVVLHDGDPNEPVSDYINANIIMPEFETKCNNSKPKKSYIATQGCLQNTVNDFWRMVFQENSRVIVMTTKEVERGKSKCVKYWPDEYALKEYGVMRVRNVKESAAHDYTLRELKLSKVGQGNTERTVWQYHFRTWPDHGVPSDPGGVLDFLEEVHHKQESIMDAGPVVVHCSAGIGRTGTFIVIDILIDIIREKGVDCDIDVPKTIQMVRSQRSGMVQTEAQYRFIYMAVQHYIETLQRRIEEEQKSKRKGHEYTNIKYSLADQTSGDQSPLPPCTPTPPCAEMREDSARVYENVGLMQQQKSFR
The test is described as follows: SHP2 Phosphatase Assay (DiFMUP fluorescence). The format is biochemical. The note with it: SHP2 0.2 nM pre-incubated with 100 nM bi-phosphorylated activating peptide; compound 1000-0.05 nM, 30 min pre-incubation; DiFMUP 20 µM, 45 min, room temperature; 10-concentration dose-response. The method in brief: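 SHP2 (0.2 nM) preactivated ≥10 min with 100 nM bis-phosphorylated peptide, then 30 min with compound (10 concentrations, 1000–0.05 nM) at room temperature, pH 7.2 HEPES buffer with DTT. DiFMUP (20 µM, added solution) reacted 45 min, pervanadate-stopped; fluorescence 350/450 nm. IC50 by 4-parameter logistic fit.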
`Cc1cnc2c(c1)[C@@H](N)C1(CCN(c3nc(C)c(-c4ccnc(C)c4Cl)n4nccc34)CC1)C2` [Compound 43, (5S)-1'-[7-(3-chloro-2-methyl-4-pyridyl)-6-methyl-pyrazolo[1,5-a]pyrazin-4-yl]-3-methyl-spiro[5,7-dihydrocyclopenta[b]pyridine-6,4'-piperidine]-5-amine]: the pIC50 is 8.40.

As to `Cc1nc(N2CCC3(CC2)Cc2ncccc2[C@H]3N)c2ccnn2c1-c1ccnc(CO)c1Cl` [Compound 207, [4-[4-[(5S)-5-aminospiro[5,7-dihydrocyclopenta[b]pyridine-6,4'-pipetidine]-1'-yl]-6-methyl-pyrazolo[1,5-a]pyrazin-7-yl]-3-chloro-2-pyridyl]methanol], the pIC50 is 7.80. For the molecule `Cc1nc(N2CCC3(CC2)Cc2ncccc2[C@H]3N)c2ccnn2c1-c1cccc(F)c1` [Compound 203, (5S)-1'-[7-(3-fluorophenyl)-6-methyl-pyrazolo[1,5-a]pyrazin-4-yl]spiro[5,7-dihydrocyclopenta[b]pyridine-6,4'-piperidine]-5-amine], the pIC50 was 8.22.

In the case of `Cc1nc(N2CCC3(CC2)Cc2ncccc2[C@H]3N)c2ccnn2c1-c1ccc2c(c1)CCCO2` [Compound 167, (5S)-1'-(7-chroman-6-yl-6-methyl-pyrazolo[1,5-a]pyrazin-4-yl)spiro[5,7-dihydrocyclopenta[b]pyridine-6,4'-piperidine]-5-amine], the pIC50 was 8.05. For `Cc1nc(N2CCC3(CC2)Oc2ncccc2[C@H]3N)c2ccnn2c1-c1cccc(F)c1Cl` [Compound 14, (3R)-1'-[7-(2-chloro-3-fluorophenyl)-6-methyl-pyrazolo [1 ,5-a]pyrazin-4-yl]spiro[3H-furo[2,3-b]pyridine-2,4'-piperidine]-3-amine] the value was 7.40.

As for `Cc1nc(N2CCC3(CC2)Cc2scnc2[C@H]3N)c2ccnn2c1-c1ccccc1` [Compound 68, (4S)-1'-(6-methyl-7-phenyl-pyrazolo[1,5-a]pyrazin-4-yl)spiro[4,6-dihydrocyclopenta[d]thiazole-5,4'-piperidine]-4-amine hydrochloride], the pIC50 is 7.74.

For `Cc1nccc(-c2c(C)nc(N3CCC4(CC3)Oc3ccccc3[C@H]4N)c3ccnn23)c1Cl` [Compound 128, (3R)-1'-[7-(3-chloro-2-methyl-4-pyridyl)-6-methyl-pyrazolo[1,5-a]pyrazin-4-yl]spiro[3H-benzofuran-2,4'-piperidine]-3-amine], the pIC50 was 7.77. For `Cc1nc(N2CCC3(CC2)Cc2ncccc2[C@H]3N)c2ccnn2c1-c1cccc(F)c1F` [Compound 1, (5S)-1'-[7-(2,3-difluorophenyl)-6-methyl-pyrazolo[1,5-a]pyrazin-4-yl]spiro[5,7-dihydrocyclopenta[b]pyridine-6,4'-piperidine]-5-amine] the value was 8.22. For `Cc1nc(N2CCC3(CC2)Cc2ncccc2[C@H]3N)c2ccnn2c1-c1cccc(F)c1C#N` [Compound 180, 2-fluoro-6-[6-methyl-4-[(5S)-5-aminospiro[5,7-dihydrocyclopenta[b]pyridine-6,4'-piperidine]-1'-yl]pyrazolo[1,5-a]pyrazin-7-yl]benzonitrile] the value was 7.41; for `CCn1cc(-c2c(C)nc(N3CCC4(CC3)Cc3ncccc3[C@H]4N)c3ccnn23)cn1` [Compound 48, (5S)-1'-[7-(1-ethylpyrazol-4-yl)-6-methyl-pyrazolo[1,5-a]pyrazin-4-yl]spiro[5,7-dihydrocyclopenta[b]pyridine-6,4'-piperidine]-5-amine], 7.77; for `Cc1nc(N2CCC3(CC2)Cc2ncccc2[C@H]3N)c2ccnn2c1-c1ccnn1C` [Compound 29, (5S)-1'-[6-methyl-7-(2-methylpyrazol-3-yl)pyrazolo[1,5-a]pyrazin-4-yl]spiro[5,7-dihydrocyclopenta[b]pyridine-6,4'-piperidine]-5-amine hydrochloride], 7.42.

Turning to `Cc1nc(N2CCC3(CC2)Cc2ncccc2[C@H]3N)c2ccnn2c1-c1ccnc(N2CCOCC2)c1F` [Compound 198, (5S)-1'-[7-(3-fluoro-2-morpholino-4-pyridyl)-6-methyl-pyrazolo[1,5-a]pyrazin-4-yl]spiro[5,7-dihydrocyclopenta[b]pyridine-6,4'-piperidine]-5-amine], the pIC50 was 6.36. In the case of `Cc1nc(N2CCC3(CC2)Cc2ncccc2[C@H]3N)c2ccnn2c1C1CC1` [Compound 210, (5S)-1'-(7-cyclopropyl-6-methyl-pyrazolo[1,5-a]pyrazin-4-yl)spiro[5,7-dihydrocyctopenta[b]pyridine-6,4'-piperidine]-5-amine], the pIC50 is less than 6.00. For `COc1nccc(-c2c(C)nc(N3CCC4(CC3)Cc3ncccc3[C@H]4N)c3ccnn23)c1Cl` [Compound 108, (5S)-1'-[7-(3-chloro-2-methoxy-4-pyridyl)-6-methyl-pyrazolo[1,5-a]pyrazin-4-yl]spiro[5,7-dihydrocyclopenta[b]pyridine-6,4'-piperidine]-5-amine] the value was 8.22. Consider `Cc1nc(N2CCC3(CC2)Cc2cc(CO)ncc2[C@H]3N)c2ccnn2c1-c1ccccc1F` [Compound 59, [(7S)-7-amino-1'-[7-(2-fluorophenyl)-6-methyl-pyrazolo[1,5-a]pyrazin-4-yl]spiro[5,7-dihydrocyclopenta[c]pyridine-6,4'-piperidine]-3-yl]methanol], for which the pIC50 is 7.96. `Cc1nc(N2CCC3(CC2)Cc2ncccc2[C@H]3N)c2ccnn2c1-c1sccc1Cl` [Compound 38, (5S)-1'-[7-(3-chloro-2-thienyl)-6-methyl-pyrazolo[1,5-a]pyrazin-4-yl]spiro[5,7-dihydrocyclopenta[b]pyridine-6,4'-piperidine]-5-amine]: the pIC50 is 7.92. As for `Cc1nocc1-c1c(C)nc(N2CCC3(CC2)Cc2ccccc2[C@H]3N)c2ccnn12` [Compound 21, (1S)-1'-[6-methyl-7-(3-methylisoxazol-4-yl)pyrazolo[1,5-a]pyrazin-4-yl]spiro[indane-2,4'-piperidine]-1-amine], the pIC50 is 7.24. Take `Cc1nc(N2CCC3(CC2)Cc2ncccc2[C@H]3N)c2ccnn2c1-c1ccc2cnccc2c1` [Compound 169, (5S)-1'-[7-(6-isoquinolyl)-6-methyl-pyrazolo[1,5-a]pyrazin-4-yl]spiro[5,7-dihydrocyclopenta[b]pyridine-6,4'-piperidine]-5-amine]: the pIC50 is 7.80. For `COc1ccc(-c2c(C)nc(N3CCC4(CC3)Cc3ncccc3[C@H]4N)c3ccnn23)c(F)c1` [Compound 185, (5S)-1'-[7-(2-fluoro-4-methoxy-phenyl)-6-methyl-pyrazolo[1,5-a]pyrazin-4-yl]spiro[5,7-dihydrocyclopenta[b]pyridine-6,4'-piperidine]-5-amine] the value was 8.15; for `Cc1nc(N2CCC3(CC2)Cc2ncccc2[C@H]3N)c2ccnn2c1-c1cc(F)ccc1F` [Compound 195, (5S)-1'-[7-(2,5-difluorophenyl)-6-methyl-pyrazolo[1,5-a]pyrazin-4-yl]spiro[5,7-dihydrocyclopenta[b]pyridine-6,4'-piperidine]-5-amine], 8.40. For `COc1ccc2c(c1)[C@@H](N)C1(CCN(c3nc(C)c(-c4cnn(C)c4C)n4nccc34)CC1)C2` [Compound 120, (1S)-1'-[7-(1,5-dimethylpyrazol-4-yl)-6-methyl-pyrazolo[1,5-a]pyrazin-4-yl]-6-methoxy-spiro[indane-2,4'-piperidine]-1-amine hydrochloride] the value was 7.96; for `Cc1nc(N2CCC3(CC2)Cc2ncccc2[C@@H]3N)c2ccnn2c1-c1ccccc1F` [Compound 136, (5R)-1'-[7-(2-fluorophenyl)-6-methyl-pyrazolo[1,5-a]pyrazin-4-yl]spiro[5,7-dihydrocyclopenta[b]pyridine-6,4'-piperidine]-5-amine], 6.42. On to `Cc1nc(N2CCC3(CC2)Cc2c(F)cccc2[C@H]3N)c2ccnn2c1-c1ccccc1F` [Compound 64, (1S)-4-Fluoro-1'-[7-(2-fluorophenyl)-6-methyl-pyrazolo[1,5-a]pyrazin-4-yl]spiro[indane-2,4'-piperidine]-1-amine hydrochloride], for which the pIC50 is 7.34. Consider `Cc1nc(N2CCC3(CC2)Oc2ncccc2[C@H]3N)c2ccnn2c1-c1cccc(Cl)c1Cl` [Compound 17, (3R)-1'-[7-(2,3-dichlorophenyl)-6-methyl-pyrazolo[1,5-a]pyrazin-4-yl]spiro[3H-furo[2,3-b]pyridine-2,4'-piperidine]-3-amine], for which the pIC50 is 7.41. For `Cc1nc(N2CCC3(CC2)Cc2c(F)cccc2[C@H]3N)c2ccnn2c1-c1cnc(C)n1C` [Compound 97, (1S)-1'-[7-(2,3-dimethylimidazol-4-yl)-6-methyl-pyrazolo[1,5-a]pyrazin-4-yl]-4-fluoro-spiro[indane-2,4'-piperidine]-1-amine hydrochloride] the value was 7.38.
